Experimental data as given in article PMC4306947, “Synthesis and Antiproliferative Activity of Thiazolyl-bis-pyrrolo[2,3-b]pyridines and Indolyl-thiazolyl-pyrrolo[2,3-c]pyridines, Nortopsentin Analogues” (Marine Drugs, 2015).

In the case of `Cn1cc(-c2nc(-c3cn(C)c4c(Cl)nccc34)cs2)c2cc(F)ccc21` [Compound 2h, 7-Chloro-3-[2-(5-fluoro-1-methyl-1H-indol-3-yl)-1,3-thiazol-4-yl]-1-methyl-1H-pyrrolo[2,3-c]pyridine], the melting point is reported as 284 to 285 °C. `c1cnc2[nH]cc(-c3csc(-c4c[nH]c5ncccc45)n3)c2c1` [Compound 1a, 3,3′-(1,3-Thiazole-2,4-diyl)bis(1H-pyrrolo[2,3-b]pyridine)] gave a melting point of 346 to 347 °C. Work on `Cn1cc(-c2csc(-c3cn(C)c4ncccc34)n2)c2cc(F)cnc21` [Compound 1i, 5-Fluoro-1-methyl-3-[2-(1-methyl-1H-pyrrolo[2,3-b]pyridin-3-yl)-1,3-thiazol-4-yl]-1H-pyrrolo[2,3-b]pyridine] yielded a melting point of 301 to 302 °C. `Cn1cc(-c2csc(-c3cn(C)c4ncccc34)n2)c2cc(Br)cnc21` [Compound 1h, 5-Bromo-1-methyl-3-[2-(1-methyl-1H-pyrrolo[2,3-b]pyridin-3-yl)-1,3-thiazol-4-yl]-1H pyrrolo[2,3-b]pyridine] showed a melting point of 308 °C. Work on `Cn1cc(-c2csc(-c3cn(C(=O)OC(C)(C)C)c4ccc(Br)cc34)n2)c2ccnc(Cl)c21` [Compound 3f, Tert-Butyl 5-bromo-3-[4-(7-chloro-1-methyl-1H-pyrrolo[2,3-c]pyridin-3-yl)-1,3-thiazol-2-yl]-1H-indole-1-carboxylate] yielded a melting point of 257 °C. With `COc1ccc2[nH]cc(-c3nc(-c4c[nH]c5c(Cl)nccc45)cs3)c2c1` [Compound 4b, 7-Chloro-3-[2-(5-methoxy-1H-indol-3-yl)-1,3-thiazol-4-yl]-1H-pyrrolo[2,3-c]pyridine] the melting point was 223 to 224 °C. For `Fc1ccc2[nH]cc(-c3nc(-c4c[nH]c5c(Cl)nccc45)cs3)c2c1` [Compound 2j, 7-Chloro-3-[2-(5-fluoro-1H-indol-3-yl)-1,3-thiazol-4-yl]-1H-pyrrolo[2,3-c]pyridine], the melting point was 281 to 282 °C. Compound `Brc1cnc2[nH]cc(-c3csc(-c4c[nH]c5ncccc45)n3)c2c1` [Compound 1b, 5-Bromo-3-[2-(1H-pyrrolo[2,3-b]pyridin-3-yl)-1,3-thiazol-4-yl)-1H-pyrrolo[2,3-b]pyridine] has a melting point of 390 to 391 °C. With `Cn1cc(-c2csc(-c3c[nH]c4ncccc34)n2)c2cc(F)cnc21` [Compound 1l, 5-Fluoro-1-methyl-3-[2-(1H-pyrrolo[2,3-b]pyridin-3-yl)-1,3-thiazol-4-yl]-1H-pyrrolo[2,3-b]pyridine] the melting point was 295 to 296 °C. For `Cn1cc(-c2nc(-c3cn(C)c4c(Cl)nccc34)cs2)c2cc(Br)ccc21` [Compound 2g, 3-[2-(5-Bromo-1-methyl-1H-indol-3-yl)-1,3-thiazol-4-yl]-7-chloro-1-methyl-1H-pyrrolo[2,3-c]pyridine], the melting point was 249 to 250 °C. In the case of `Cn1cc(-c2csc(-c3cn(C(=O)OC(C)(C)C)c4ccccc34)n2)c2ccnc(Cl)c21` [Compound 3d, Tert-Butyl 3-[4-(7-chloro-1-methyl-1H-pyrrolo[2,3-c]pyridin-3-yl)-1,3-thiazol-2-yl]-1H-indole-1-carboxylate], the melting point is reported as 279 to 280 °C. `CC(C)(C)OC(=O)n1cc(-c2nc(-c3c[nH]c4c(Cl)nccc34)cs2)c2ccccc21` [Compound 3a, Tert-Butyl 3-[4-(7-Chloro-1H-pyrrolo[2,3-c]pyridin-3-yl)-1,3-thiazol-2-yl]-1H-indole-1-carboxylate] gave a melting point of 225 to 226 °C. `COc1ccc2[nH]cc(-c3nc(-c4cn(C)c5c(Cl)nccc45)cs3)c2c1` [Compound 4e, 7-Chloro-3-[2-(5-methoxy-1H-indol-3-yl)-1,3-thiazol-4-yl]-1-methyl-1H-pyrrolo[2,3-c]pyridine] showed a melting point of 184 to 185 °C. In the case of `Fc1cnc2[nH]cc(-c3csc(-c4c[nH]c5ncccc45)n3)c2c1` [Compound 1c, 5-Fluoro-3-[2-(1H-pyrrolo[2,3-b]pyridin-3-yl)-1,3-thiazol-4-yl]-1H-pyrrolo[2,3-b]pyridine], the melting point is reported as 373 to 374 °C. `COc1ccc2c(c1)c(-c1nc(-c3c[nH]c4c(Cl)nccc34)cs1)cn2C(=O)OC(C)(C)C` [Compound 3b, Tert-Butyl 3-[4-(7-chloro-1H-pyrrolo[2,3-c]pyridin-3-yl)-1,3-thiazol-2-yl]-5-methoxy-1H-indole-1-carboxylate] showed a melting point of 312 to 313 °C. With `Clc1nccc2c(-c3csc(-c4c[nH]c5ccccc45)n3)c[nH]c12` [Compound 4a, 7-Chloro-3-[2-(1H-indol-3-yl)-1,3-thiazol-4-yl]-1H-pyrrolo[2,3-c]pyridine] the melting point was 271 to 272 °C. In the case of `COc1ccc2c(c1)c(-c1nc(-c3cn(C)c4c(Cl)nccc34)cs1)cn2C` [Compound 2f, 7-Chloro-3-[2-(5-methoxy-1-methyl-1H-indol-3-yl)-1,3-thiazol-4-yl]-1-methyl-1H-pyrrolo[2,3-c]pyridine], the melting point is reported as 231 to 232 °C. Work on `Cn1cc(-c2csc(-c3c[nH]c4ccc(Br)cc34)n2)c2ccnc(Cl)c21` [Compound 4f, 3-[2-(5-Bromo-1H-indol-3-yl)-1,3-thiazol-4-yl]-7-chloro-1-methyl-1H-pyrrolo[2,3-c]pyridine] yielded a melting point of 273 to 274 °C. `Cn1cc(C2(c3c[nH]c4ncccc34)CSC=N2)c2cccnc21` (stereo not shown) [Compound 1j, 1-Methyl-3-[4-(1H-pyrrolo[2,3-b]pyridin-3-yl)-1,3-thiazol-4-yl]-1H-pyrrolo[2,3-b]pyridine] showed a melting point of 303 to 304 °C. `COc1ccc2c(c1)c(-c1nc(-c3c[nH]c4c(Cl)nccc34)cs1)cn2C` [Compound 2b, 7-Chloro-3-[2-(5-methoxy-1-methyl-1H-indol-3-yl)-1,3-thiazol-4-yl]-1H-pyrrolo[2,3-c]pyridine] gave a melting point of 216 to 217 °C. For `Cn1cc(-c2nc(-c3cn(C)c4c(Cl)nccc34)cs2)c2ccccc21` [Compound 2e, 7-Chloro-1-methyl-3-[2-(1-methyl-1H-indol-3-yl)-1,3-thiazol-4-yl]-1H-pyrrolo[2,3-c]pyridine], the melting point was 265 to 266 °C. Work on `Cn1cc(-c2nc(-c3c[nH]c4ncc(Br)cc34)cs2)c2cccnc21` [Compound 1e, 3-[4-(5-Bromo-1H-pyrrolo[2,3-b]pyridin-3-yl)-1,3-thiazol-2-yl]-1-methyl-1H-pyrrolo[2,3-b]pyridine] yielded a melting point of 311 °C. For `CC(C)(C)OC(=O)n1cc(-c2nc(-c3c[nH]c4c(Cl)nccc34)cs2)c2cc(Br)ccc21` [Compound 3c, Tert-Butyl 5-bromo-3-[4-(7-chloro-1H-pyrrolo[2,3-c]pyridin-3-yl)-1,3-thiazol-2-yl]-1H-indole-1-carboxylate], the melting point was 241 to 242 °C. Compound `Cn1cc(-c2nc(-c3c[nH]c4c(Cl)nccc34)cs2)c2cc(F)ccc21` [Compound 2d, 7-Chloro-3-[2-(5-fluoro-1-methyl-1H-indol-3-yl)-1,3-thiazol-4-yl]-1H-pyrrolo[2,3-c]pyridine] has a melting point of 337 to 338 °C. Compound `Cn1cc(-c2nc(-c3c[nH]c4c(Cl)nccc34)cs2)c2ccccc21` [Compound 2a, 7-Chloro-3-[2-(1-methyl-1H-indol-3-yl)-1,3-thiazol-4-yl]-1H-pyrrolo[2,3-c]pyridine] has a melting point of 326 to 327 °C. Work on `Cn1cc(-c2nc(-c3c[nH]c4ncccc34)cs2)c2cccnc21` [Compound 1d, 1-Methyl-3-[4-(1H-pyrrolo[2,3-b]pyridin-3-yl)-1,3-thiazol-2-yl]-1H-pyrrolo[2,3-b]pyridine] yielded a melting point of 278 to 279 °C. `Cn1cc(-c2nc(-c3c[nH]c4ncc(F)cc34)cs2)c2cccnc21` [Compound 1f, 3-[4-(5-Fluoro-1H-pyrrolo[2,3-b]pyridin-3-yl)-1,3-thiazol-2-yl]-1-methyl-1H-pyrrolo[2,3-b]pyridine] gave a melting point of 316 °C. `Cn1cc(-c2nc(-c3c[nH]c4c(Cl)nccc34)cs2)c2cc(Br)ccc21` [Compound 2c, 3-[2-(5-Bromo-1-methyl-1H-indol-3-yl)-1,3-thiazol-4-yl]-7-chloro-1H-pyrrolo[2,3-c]pyridine] showed a melting point of 374 to 375 °C. In the case of `Cn1cc(-c2csc(-c3c[nH]c4ccccc34)n2)c2ccnc(Cl)c21` [Compound 4d, 7-Chloro-3-[2-(1H-indol-3-yl)-1,3-thiazol-4-yl]-1-methyl-1H-pyrrolo[2,3-c]pyridine], the melting point is reported as 210 to 211 °C. For `Cn1cc(-c2csc(-c3cn(C)c4ncccc34)n2)c2cccnc21` [Compound 1g, 3,3′-(1,3-Thiazole-2,4-diyl)bis(1-methyl-1H-pyrrolo[2,3-b]pyridine)], the melting point was 310 to 311 °C. `Cn1cc(-c2csc(-c3c[nH]c4ccc(F)cc34)n2)c2ccnc(Cl)c21` [Compound 2i, 7-Chloro-3-[2-(5-fluoro-1H-indol-3-yl)-1,3-thiazol-4-yl]-1-methyl-1H-pyrrolo[2,3-c]pyridine] showed a melting point of 284 to 285 °C.
